Assay results reported in ChEMBL document CHEMBL1141013, “Novel oxime and oxime ether derivatives of 12,14-dichlorodehydroabietic acid: design, synthesis, and BK channel-opening activity” (Bioorg Med Chem Lett, 2008).

Target: Calcium-activated potassium channel subunit alpha-1 (Homo sapiens) (UniProt Q12791)
Assay: Activation of human BKalpha channel expressed in CHOK1 cells assessed as increase in ionic current at 30 uM by patch clamp method relative to control
Assay type: cell-based
Settings: CHO-K1

Sequence of Calcium-activated potassium channel subunit alpha-1 (Homo sapiens) (Q12791 whole entry): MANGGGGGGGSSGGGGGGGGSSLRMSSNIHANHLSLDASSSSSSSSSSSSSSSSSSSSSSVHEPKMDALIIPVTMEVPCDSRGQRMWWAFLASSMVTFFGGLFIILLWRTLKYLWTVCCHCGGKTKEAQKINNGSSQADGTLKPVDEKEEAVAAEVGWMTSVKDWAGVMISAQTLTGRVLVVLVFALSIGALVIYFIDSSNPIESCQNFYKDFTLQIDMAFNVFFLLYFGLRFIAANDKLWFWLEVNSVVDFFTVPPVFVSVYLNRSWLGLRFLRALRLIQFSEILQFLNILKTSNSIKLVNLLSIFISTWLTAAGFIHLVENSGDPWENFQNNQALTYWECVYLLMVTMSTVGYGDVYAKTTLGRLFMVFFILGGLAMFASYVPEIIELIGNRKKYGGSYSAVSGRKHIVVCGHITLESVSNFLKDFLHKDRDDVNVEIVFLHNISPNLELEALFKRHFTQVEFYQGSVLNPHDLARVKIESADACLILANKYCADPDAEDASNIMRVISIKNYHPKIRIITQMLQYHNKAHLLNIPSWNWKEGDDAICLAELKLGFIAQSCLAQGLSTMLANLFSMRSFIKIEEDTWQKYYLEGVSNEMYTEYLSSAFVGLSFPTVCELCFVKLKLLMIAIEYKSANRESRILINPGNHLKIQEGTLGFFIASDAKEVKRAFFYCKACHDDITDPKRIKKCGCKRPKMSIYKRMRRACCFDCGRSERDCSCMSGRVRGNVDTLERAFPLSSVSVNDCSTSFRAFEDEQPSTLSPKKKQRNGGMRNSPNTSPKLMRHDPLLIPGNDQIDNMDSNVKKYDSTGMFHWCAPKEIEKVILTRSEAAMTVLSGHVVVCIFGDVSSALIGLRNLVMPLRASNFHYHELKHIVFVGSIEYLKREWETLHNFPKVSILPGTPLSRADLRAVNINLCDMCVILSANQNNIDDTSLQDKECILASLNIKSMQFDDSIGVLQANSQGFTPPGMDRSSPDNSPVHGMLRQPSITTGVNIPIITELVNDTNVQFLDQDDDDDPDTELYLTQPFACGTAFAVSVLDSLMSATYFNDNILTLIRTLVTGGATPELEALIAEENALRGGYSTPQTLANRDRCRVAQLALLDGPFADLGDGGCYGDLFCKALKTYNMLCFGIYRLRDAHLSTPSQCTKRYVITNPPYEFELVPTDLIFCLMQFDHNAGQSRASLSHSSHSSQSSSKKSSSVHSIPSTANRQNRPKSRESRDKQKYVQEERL

| Structure (SMILES) | Activity |
| --- | --- |
| CC(C)c1c(Cl)cc2c(c1Cl)/C(=N/O)C[C@H]1[C@](C)(C(=O)O)CCC[C@]21C | 242% |
| C=CCO/N=C1\C[C@H]2[C@](C)(C(=O)O)CCC[C@]2(C)c2cc(Cl)c(C(C)C)c(Cl)c21 | 566% |
| CO/N=C1\C[C@H]2[C@](C)(C(=O)O)CCC[C@]2(C)c2cc(Cl)c(C(C)C)c(Cl)c21 | 410% |

Now from value to compound:

| Activity | Structure (SMILES) |
| --- | --- |
| 425% | C#CCO/N=C1\C[C@H]2[C@](C)(C(=O)O)CCC[C@]2(C)c2cc(Cl)c(C(C)C)c(Cl)c21 |
| 325% | O=c1[nH]c2cc(C(F)(F)F)ccc2n1-c1cc(C(F)(F)F)ccc1O |
